The record followed here is US20250041306A1, “TARGETED PROTEASE DEGRADATION (TED) PLATFORM” (EUBULUS BIOTHERAPEUTICS INC., priority 2021, published 2025).

Like-named read-outs stand apart in the source and are kept apart here. Numbered stars: 1 amine (or outer) side, 2 acyl side, 3 side chain; on linkers, the order of the positions; unused ones are H or OH. Bridge positions count the residues as written; N and C are the ends. Square brackets hold non-standard residues; d marks the D form. Peptide text beside a SMILES is read from it. I, II: the chains in the order shown. * marks the point of attachment. X2 = NC(=O)c1ccccc1Nc1nc(Nc2ccc(N3CCN(C(=O)NC4CCC(N(CCC#Cc5ccc6c(c5)CN(C5CCC(=O)NC5=O)C6=O)*)CC4)CC3)cc2)ncc1Cl; Succinimide(1-C2H4CO,3-yl) = O=C1CC([*:1])C(=O)N1CCC(=O)[*:2]; PABC = O=C(OCc1ccc(N[*:1])cc1)[*:2]; Thr(ol) = C[C@@H](O)[C@H](N)CO

By EC50 is commonly meant the concentration needed to bring the measured effect to its halfway point.

In series [1] the test system is Human Small Cell Lung Cancer NCI-H82. Kind of series: Cell proliferation experiment (Alarm blue), H82. It counts as cell-based. The gist of the method: (§1)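 Log-phase cells in 96-well plates were exposed 72 h to compound in a 5-fold dilution series, duplicate wells. Viability was measured by Alamar blue fluorescence, and IC50 was derived from a fit using minimum, maximum and slope.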

Series [2] relates to human gastric carcinoma cells N87. Kind of series: Cell proliferation experiment (Alarm blue), N87. It counts as cell-based. The method, boiled down:
as §1

In series [3] the test system is Human Colon Cancer cells Colo205. Description: Cell proliferation experiment (Alarm blue), Colo205. It counts as cell-based. The method, boiled down:
as §1

In series [4] the test system is Human Small Cell Lung Cancer H69. Kind of series: Cell proliferation experiment (Alarm blue), H69. It counts as cell-based. The gist of the method:
as §1

Series [5] concerns Human Colon Cancer HT-29. Kind of series: Cell proliferation experiment (Alarm blue), HT-29. In kind it is cell-based. The method, boiled down: as §1
Series [6] has as its system human small cell lung cancer NCI-H82 xenograft tumor. Kind of series: In vivo efficacy in nude mouse xenograft tumor model of human small cell lung cancer NCI-H82. More on the design: species or system BALB/c nude mice. To be noted: nude mice. How it is done:
Transplanted tumor cell line: human small cell lung cancer cell NCI-H82, derived from the American Type Culture Collection Center (ATCC, cryopreserved in liquid nitrogen in the laboratory). Under 5% CO2 and 37° C. culture conditions, cells were routinely cultured in RPMI-1640 culture medium containing 10% fetal bovine serum; they were passaged according to cell growth, with a passage ratio of 1:2 to 1:5.
Experimental animal: Female BALB/c nude mice (number: 65; age: 6-8 weeks) were purchased from Charles River and raised in the SPF animal room of Suzhou Shengsu New Pharmaceutical Development Co., Ltd. (3D Biooptima). The temperature is 20 to 25° C., and relative humidity is 40% to 70%, with bright light and dark light for 12 hours each; animals were free to drink and eat. After normal feeding for about 5 days, mice with good physical signs can be selected for this experiment after veterinary inspection. Before grouping, animals were identified at the base of tail using maker pens. After grouping, each animal was identified by ear clipping.
Animal model preparation: NCI-H82 cells at logarithmic growth phase were collected, the cells were resuspended in 50% serum-free RPMI-1640 medium and 50% Matrigel after counting. The concentration of cells was adjusted to […] cells/mL. […] After inoculation, the animal status and tumor growth were regularly observed, the tumor diameter was measured using a electronic vernier caliper, the data were entered into Excel to calculate the tumor volume. […] After the start of experiment, the tumor diameter was measured twice a week, the tumor volume was calculated, and the animal weight was weighed and recorded at the same time. […]
Preparation of UB-181322 sample: An appropriate amount of UB series sample was weighed and put it into a glass bottle; an appropriate volume of DMSO was added. […] The liquid was vortexed to mix evenly, with the proportions of DMSO, 30% Solutol aqueous solution and ultrapure water in the liquid being 5%, 20% and 75%, to obtain preparations with appropriate final concentrations, which are ready for use. […]

The mark [7] stands for this setting: H82 cells, 72 h culture, read-out: Anti cell proliferative activity EC50, H82.
Where [8] appears, read: N87 cells, 72 h culture, read-out: Anti cell proliferative activity EC50, N87.
Setting [9] is: Colo205 cells, 72 h culture, read-out: Anti cell proliferative activity EC50, Colo205.
[10] abbreviates: H69 cells, 72 h culture, read-out: Anti cell proliferative activity EC50, H69.
Where [11] appears, read: HT-29 cells, 72 h culture, read-out: Anti cell proliferative activity EC50, HT-29.
The mark [12] stands for this setting: injection 23 mg/kg once every two days (FIG. 3B).

Regarding `C[C@H](NC(=O)[C@H](CC(=O)O)NC(=O)[C@H](CC(=O)O)NC(=O)[C@H](CCCNC(=N)N)NC(=O)[C@H](CC(=O)O)NC(=O)CCN1C(=O)CC(SC[C@H](N)C(=O)N[C@@H](Cc2ccccc2)C(=O)N[C@H]2CSSC[C@@H](C(=O)N[C@H](CO)[C@@H](C)O)NC(=O)[C@H]([C@@H](C)O)NC(=O)[C@H](CCCCN)NC(=O)[C@@H](Cc3c[nH]c4ccccc34)NC(=O)[C@H](Cc3ccccc3)NC2=O)C1=O)C(=O)N[C@@H](CC(N)=O)C(=O)Nc1ccc(COC(=O)N(CCC#Cc2ccc3c(c2)CN(C2CCC(=O)NC2=O)C3=O)C2CCC(NC(=O)N3CCN(c4ccc(Nc5ncc(Cl)c(Nc6ccccc6C(N)=O)n5)cc4)CC3)CC2)cc1` (stereo partly shown) [UB-181343] (I: H-CFCF[dW]KTC[Thr(ol)] / II: DRDDAN[PABC]-X2; linker I:1-II:N via Succinimide(1-C2H4CO,3-yl); disulfide I:3-I:8), the EC50 is 103 nM in series [1] (72 h); 305 nM in series [2] (72 h); 285 nM in series [3] (72 h); 738 nM in series [4] (72 h); > 1000 nM in series [5] (72 h).

In the case of `CNC(=O)c1ccccc1Nc1nc(Nc2ccc(N3CCN(C(=O)NC4CCC(N(CCC#Cc5ccc6c(c5)CN(C5CCC(=O)NC5=O)C6=O)C(=O)OCc5ccc(NC(=O)[C@H](CC(N)=O)NC(=O)[C@H](C)NC(=O)[C@H](C)NC(=O)CCCCCN6C(=O)CC(SC[C@H](N)C(=O)N[C@H](Cc7ccccc7)C(=O)N[C@H]7CSSC[C@@H](C(=O)N[C@H](CO)[C@@H](C)O)NC(=O)[C@H]([C@@H](C)O)NC(=O)[C@H](CCCCN)NC(=O)[C@@H](Cc8c[nH]c9ccccc89)NC(=O)[C@H](Cc8ccccc8)NC7=O)C6=O)cc5)CC4)CC3)cc2)ncc1Cl` (stereo partly shown) [UB-181247], the EC50 was 91.4 nM in series [1] (setting [7]); 168 nM in series [2] (setting [8]); 169 nM in series [3] (setting [9]); > 1000 nM in series [4] (setting [10]); > 1000 nM in series [5] (setting [11]).

On to `CNC(=O)c1ccccc1Nc1nc(Nc2ccc(N3CCC(NCC#Cc4ccc5c(c4)CN(C4CCC(=O)NC4=O)C5=O)CC3)cc2)ncc1Cl` (stereo not shown) [UB-181269], for which the EC50 in series [1] (Homo sapiens, NCI-H82, 72 h, H82 cells, 72 h culture, read-out: Anti cell proliferative activity EC50, H82) is 11.6 nM; in series [2] (Homo sapiens, 72 h, N87 cells, 72 h culture, read-out: Anti cell proliferative activity EC50, N87) it was 28.8 nM; in series [3] (Homo sapiens, COLO 205, 72 h, Colo205 cells, 72 h culture, read-out: Anti cell proliferative activity EC50, Colo205), 10.7 nM; in series [4] (Homo sapiens, NCI-H69, H69 cells, 72 h culture, read-out: Anti cell proliferative activity EC50, H69) it was > 1000 nM; in series [5] (Homo sapiens, HT-29 cells, 72 h culture, read-out: Anti cell proliferative activity EC50, HT-29) it was 35.5 nM.

For the molecule `CNC(=O)c1ccccc1Nc1nc(Nc2ccc(N3CCN(C(=O)N[C@H]4CC[C@@H](N(CCC#Cc5ccc6c(c5)CN(C5CCC(=O)NC5=O)C6=O)C(=O)OC(C)C(C)SSC[C@@H](NC(=O)CC[C@@H](NC(=O)c5ccc(NCc6cnc7nc(N)[nH]c(=O)c7n6)cc5)C(=O)O)C(=O)N[C@H](Cc5ccccc5)C(=O)N[C@H]5CSSC[C@@H](C(=O)N[C@H](CO)[C@@H](C)O)NC(=O)[C@H]([C@@H](C)O)NC(=O)[C@H](CCCCN)NC(=O)[C@@H](Cc6c[nH]c7ccccc67)NC(=O)[C@H](Cc6ccccc6)NC5=O)CC4)CC3)cc2)ncc1Cl` (stereo partly shown) [UB-181267], the EC50 is 168 nM in series [1] (setting [7]); > 1000 nM in series [2] (setting [8]); 519 nM in series [3] (setting [9]); > 1000 nM in series [4] (setting [10]); > 1000 nM in series [5] (setting [11]).

As for `CC(C)[C@@H](NC(=O)CCOCCOCCOCCOCCOCCOCCOCCOCCN1C(=O)CC(SC[C@H](N)C(=O)N[C@H](Cc2ccccc2)C(=O)N[C@H]2CSSC[C@@H](C(=O)N[C@H](CO)[C@@H](C)O)NC(=O)[C@H]([C@@H](C)O)NC(=O)[C@H](CCCCN)NC(=O)[C@@H](Cc3c[nH]c4ccccc34)NC(=O)[C@H](Cc3ccccc3)NC2=O)C1=O)C(=O)N[C@@H](C)C(=O)Nc1ccc(COC(=O)N(CCC#Cc2ccc3c(c2)CN(C2CCC(=O)NC2=O)C3=O)[C@H]2CC[C@H](NC(=O)N3CCN(c4ccc(Nc5ncc(Cl)c(Nc6ccccc6C(N)=O)n5)cc4)CC3)CC2)cc1` (stereo partly shown) [UB-181322], the EC50 in series [1] (setting [7]) is 312 nM; in series [2] (setting [8]), 470 nM; in series [3] (setting [9]), 384 nM; in series [4] (setting [10]) it was > 1000 nM; in series [5] (setting [11]), > 1000 nM. Further, the “tumor inhibitory effect compared with blank group” value in series [6] (injection 23 mg/kg once every two days (FIG. 3A)) is “shows the effect of inhibiting tumor growth”. Also, the “mouse body weight during the administration period” value in series [6] (setting [12]) is listed as “does not change significantly”. Further, the toxicity result in series [6] (setting [12]) is listed as “low”.
